Results reported in patent publication US10618929B2, “3-substituted 5-amino-6H-thiazolo[4,5-D]pyrimidine-2, 7-dione compounds for the treatment and prophylaxis of virus infection” (Hoffmann-La Roche Inc., priority 2014, dated 2020).

Each compound was assayed on human hepatocytes (assay: Metabolic conversion of prodrugs to active forms in human hepatocytes). Conditions: active metabolites Example 1-A, Example 14-A and penciclovir, respectively.
Assay type: in vitro ADME
Excerpt: A study was undertaken to evaluate the metabolic conversion of prodrugs, formula (II) or formula (IIa), to compounds of formula (I) or formula (Ia) of the present invention. The produgs, formula (II) or formula (IIa), can be metabolized to the active compound of formula (I) or formula (Ia) and other compounds of the invention in the body if they are served as prodrugs. Hepatocytes are often used to assess the degree of metabolic conversion of prodrugs in the body of animal or human. A study was undertaken to evaluate the metabolic conversion of prodrugs, Example 2-A, Example 3-A, Example 4-A, Example 16-A and Example 17-A, to the corresponding active forms, Example 1-A and Example 14-A, in the presence of human hepatocytes. The formation of active forms, Example 1-A and Example 14-A, were monitored in the study. For comparison, the metabolic conversion of famciclovir to penciclovir was also assessed. Cryopreserved hepatocytes plating medium (Cat. #: PY-HMD-01) was purchased from RILD Research Institute for Liver Diseases (Shanghai) Co. Ltd. Cryopreserved human hepatocyte (Cat. #: X008005, Lot #:VRR) was purchased from In Vitro Technologies (Baltimore, Md.). The stock hepatocyte suspension was prepared from cryopreserved hepatocytes in plating medium at the concentration of 1.8×10^6 cells/mL. […] Reaction suspensions were prepared in 24-well cell culture plate by mixing 200 μL of hepatocytes suspension (Cyno or human) and 200 μL of working solution. The final incubation contained 0.9×10^6 cells/mL and 50 μM compound. The above mixtures were incubated at 37° C. in a humidified 5% CO2 atmosphere, with a 150 rpm shaking. After 180 min of incubation, 200 μL of the incubation mixture was transferred to 1.5 mL tube and quenched with 400 μL stop solution (ice-cold acetonitrile with 0.2 μM Tolbutamide as internal standard). The samples were centrifuged at 12000 rpm for 10 minutes and the resultant supernatants were subjected to LC-MS/MS analysis. The calibration curves were prepared in the following way. To a 200 μL of cell suspension (cell density of 1.8 million cells/mL), 198 μL of hepatocyte plating medium and 2 μL of the appropriate concentration of the compound in DMSO were added. Samples were mixed thoroughly and 200 μL of the mixture was transferred to 400 uL of the stop solution (see above). […] The compounds were quantified on an API5500 […] instrument in the ESI-Positive MRM mode.

Structure (SMILES) | Metabolic conversion of prodrug to active metabolite
CCC(O)[C@@H]1C[C@@H](O)[C@H](n2c(=O)sc3cnc(N)nc32)O1 (single isomer, unassigned) [Example 2-A] | metabolized to yield the corresponding active metabolites
CCC(O)[C@@H]1C[C@@H](OC(C)=O)[C@H](n2c(=O)sc3cnc(N)nc32)O1 (single isomer, unassigned) [Example 3-A] | metabolized to yield the corresponding active metabolites
CCC(OC(C)=O)[C@@H]1C[C@@H](O)[C@H](n2c(=O)sc3cnc(N)nc32)O1 (single isomer, unassigned) [Example 4-A] | metabolized to yield the corresponding active metabolites
CC(=O)OC(C1CC1)[C@@H]1C[C@@H](O)[C@H](n2c(=O)sc3cnc(N)nc32)O1 (single isomer, unassigned) [Example 16-A] | metabolized to yield the corresponding active metabolites
Nc1ncc2sc(=O)n([C@@H]3O[C@H](C(O)C4CC4)C[C@H]3O)c2n1 (single isomer, unassigned) [Example 17-A] | metabolized to yield the corresponding active metabolites
CC(=O)OCC(CCn1cnc2cnc(N)nc21)COC(C)=O [Famciclovir, famciclovir, reference compound] | metabolized to yield the corresponding active metabolites

These compounds were tested on murine peripheral blood mononuclear cells (PBMC) (assay: In vitro cytokine induction in murine PBMC (multiplex assay)). Conditions: 2 to 10 μM, 24 hours, supernatant, dose-dependent.
Protocol: 50 μL of cell culture medium was collected and analyzed with a 36plex Procarta multiplex kit (ebioscience EPX360-26092-901, eBioscience), which measured the levels of 15 cytokine analytes, following the manufacturer's instruction.

Structure (SMILES) | Cytokine induction in murine PBMC
CCC(O)[C@@H]1C[C@@H](O)[C@H](n2c(=O)sc3c(=O)[nH]c(N)nc32)O1 (single isomer, unassigned) [Example 1-A] | high levels of IFNα, IP10, TNFα, and IL-6 were found induced
